Assays:
[1] = In vitro stability of Compound TP-1 to household chemicals and enzyme preparations; format: physicochemical
Description: Compound TP-1 (which can be prepared as described in the examples herein) was exposed at room temperature (RT) or 80° C. for either 1 or 24 hours (hr) to the following household chemicals: vodka (40% alcohol), baking soda (saturated sodium bicarbonate solution, pH 9), WINDEX® with Ammonia-D (pH 11) and vinegar (5% acetic acid). Compound TP-1 was also exposed to the following enzyme-containing compositions at RT for 1 or 24 hr: GNC® Super Digestive (2 capsules of GNC Super Digestive Enzymes dissolved in 5 mL of water), tenderizer (Adolf's meat tenderizer, primarily papain, dissolved in water to a concentration of 0.123 g/mL to approximate the concentration of a marinade given on the bottle label), and subtilisn (8 tablets of ULTRAZYME® contact lens cleaner (Advanced Medical Optics, Milpitas, Calif.) dissolved in 4 mL water). Samples were incubated as described and aliquots removed at 1 hr and 24 hr and stabilized by adding each to a solution of 50% or 100% of 85% phosphoric acid solution to achieve a final pH of less than or equal to pH 4. The stabilized aliquots were then diluted 4- to 6-fold with water, vortex-mixed and applied to HPLC.
The solid black bars indicate the percentage of Compound TP-1 remaining after exposure, and the lightly shaded bars with a black outline indicate the percentage conversion of Compound TP-1 to tapentadol.

[2] = Pharmacokinetics following PO administration to dogs; format: in vivo, dog; conditions: approximately equimole amounts
Description: Purebred male young adult/adult beagles were fasted overnight. Compound TP-1 (which can be prepared as described in the examples herein) or tapentadol (which can be prepared as described in PCT patent application No. WO28012046A1) were administered in approximately equimole amounts in water via oral gavage followed immediately by flushing the gavage tube with 5 mL water prior to withdrawal. Blood was collected from each animal predose and following dose administration at 0.25, 0.5, 1, 2, 3, 4, 6, 8, 10, 12 and 24 hours postdose. Blood samples were centrifuged and 0.8 mL plasma transferred to fresh tubes containing 8 μl formic acid; samples were vortexed, then immediately placed in dry ice and stored in a −80° C. freezer until analysis by HPLC/MS.
Table 5 and FIG. 6 provide tapentadol exposure results for dogs administered Compound TP-1 or tapentadol. Results in Table 5 are reported for each group of four dogs as described in Example 11.

trypsin = biological target: T1, trypsin (Bos taurus, UniProt P00760); experiment: In vitro trypsin conversion of prodrug to tapentadol and inhibition thereof by Compound 109; format: biochemical, bovine; conditions: bovine, trypsin from bovine pancreas, pH 8, with Compound 109 (trypsin inhibitor); Table 8; 4815 BAEE U trypsin/mL, Compound 109 40 μM; read-out: Pro-drug trypsin half-life, Average ± sd (converted)
T1 construct: purchased Sigma-Aldrich T8003; host or cells: bovine pancreas
T1 sequence (P00760 24-246): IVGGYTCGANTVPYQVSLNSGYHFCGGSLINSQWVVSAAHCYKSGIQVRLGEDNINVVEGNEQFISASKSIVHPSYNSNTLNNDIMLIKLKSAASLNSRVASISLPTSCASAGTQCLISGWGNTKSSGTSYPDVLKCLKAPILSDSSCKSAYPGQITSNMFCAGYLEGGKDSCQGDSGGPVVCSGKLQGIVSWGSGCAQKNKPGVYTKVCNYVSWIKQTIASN
Description: (§1) Compound TP-1 was incubated with trypsin from bovine pancreas (Catalog No. T8003, Type I, ˜10,000 BAEE units/mg protein, Sigma-Aldrich). Specifically, the reactions included 0.761 nM of Compound TP-1•2HCl, 22.5 mM calcium chloride, 40 to 172 mM Tris pH 8 and 0.25% DMSO with the BAEE units of trypsin indicated in Table 4. The reactions were conducted at 37° C. for 24 hr. Samples were collected at specified time points, transferred into 0.5% formic acid in acetonitrile to stop trypsin activity and stored at less than −70° C. until analysis by LC-MS/MS.
(§2) Compound TP-1 was also incubated in the presence of 2 micromolar (μM) trypsin inhibitor Compound 109. In that case, Compound TP-1 was added 5 min after the other incubation components. Other reaction and sample treatment conditions were as described above.
(§3) Table 4 indicates the results of exposure of Compound TP-1 to trypsin in the absence or presence of trypsin inhibitor. The results are expressed as half-life of prodrug when exposed to trypsin (i.e., Prodrug trypsin half-life) in hours and rate of tapentadol (TP) formation in umol/h/BAEE U trypsin.
(§4) Compound TP-1, Compound TP-3, or Compound TP-4 (which can be prepared as described in the examples herein) were incubated in the absence or presence of Compound 109 as shown in Table 8. Incubations and analysis procedures were as described in Example 14.

[3] = biological target: T2, trypsin from bovine pancreas (Bos taurus, UniProt P00760); experiment: as above; format: biochemical; conditions: 4815 BAEE U trypsin/mL
T2 construct: purchased Sigma-Aldrich T8003; host or cells: bovine pancreas
T2 sequence (P00760 24-246): T1 sequence (P00760 24-246)
Description: as §1, §2, §3, §4

CC[C@@H](c1cccc(OC(=O)N(C)CCNC(=O)[C@H](CCCNC(=N)N)NC(=O)CC(=O)O)c1)[C@@H](C)CN(C)C [Compound TP-1, N—[(S)-1-(2-{[3-((1R,2R)-3-dimethylamino-1-ethyl-2-methyl-propyl)-phenoxycarbonyl]-methyl-amino}-ethylcarbamoyl)-4-guanidino-butyl]-malonamic acid]
conversion to tapentadol ([1]; all other conditions (household chemicals at RT or 80° C., enzyme preparations at RT, 1 or 24 hr)): less than 10% | conversion to tapentadol ([1]; sodium bicarbonate at 80° C. or Windex at 80° C. for 24 hr): 10-20% | tapentadol PK profile compared to administration of tapentadol [2]: delayed Tmax and increased AUC | half-life at 0.761 nM (trypsin): 3.94 ± 0.18 h | Rate of TP formation, Average ± sd ([3]; Table 4, Compound 109 0 μM): 0.0302 ± 0.002 umol/h/BAEE U | Rate of TP formation, Average ± sd ([3]; Table 4, Compound 109 2 μM): 0.0243 ± 0.0008 umol/h/BAEE U | Rate of TP formation, Average ± sd ([3]; Table 8, Compound 109 0 μM): 0.0302 ± 0.002 umol/h/BAEE U | Rate of TP formation, Average ± sd ([3]; Table 8, Compound 109 2 μM): 0.0243 ± 0.0008 umol/h/BAEE U

Reference: patent US9238020B2, “Compositions comprising enzyme-cleavable phenol-modified tapentadol prodrug” (priority 2010, dated 2016)
